These results are taken from US8796302B2 (priority 2004, dated 2014).

The test system of experiment [1] is dopaminergic neurons in rat primary mesencephalic neuron-glia cultures. Kind of experiment: DA uptake / TH-IR count in neuron-glia cultures without toxin (spontaneous DA neuronal death, neurotrophic effect). As to conditions: sodium butyrate, indicated concentrations, 7 days. It is filed as cell-based. The procedure: In Example 23, [^3H]DA uptake assay and immunohistochemical analysis for TH-IR neurons were used to assess the viability of DA neurons in rat primary mesencephalic neuron-glia cultures in which approximately 1% of the neurons are dopaminergic. [^3H]DA uptake assays were performed as described in Example 1.
Rat primary mesencephalic neuron-glia cultures were prepared from the ventral mesencephalic tissues of embryonic day 13-14 Fisher 344 rats. Dissociated cells were seeded at a density of 5×10^5/well to poly-D-lysine-precoated 24-well plates. Cells were maintained at 37° C. in a humidified atmosphere of 5% CO2 and 95% air, in minimal essential medium containing 10% fetal bovine serum (FBS), 10% horse serum, 1 gm/l glucose, 2 mM L-glutamine, 1 mM sodium pyruvate, 100 μM non-essential amino acids, 50 U/ml penicillin, and 50 μg/ml streptomycin. Unless otherwise indicated, seven-day-old cultures were used for treatment.
Seven days after seeding, each well was treated with indicated concentration of VPA or its vehicle. Seven days after treatment, the viability of dopaminergic neurons was assessed by [^3H]DA uptake assays. Quantified results are expressed as mean±SEM of percentage of vehicle-treated cultures from three experiments performed in duplicate. *, p<0.05 compared with the corresponding vehicle-treated control cultures.
Next, the rat primary mesencephalic neuron-glia cultures were treated with 0.6 mM VPA for various times to determine the treatment time-dependency. Rat primary mesencephalic neuron-glia cultures in a 24-well plate were treated with 0.6 mM VPA or its vehicle for indicated time 7 days after seeding. The viability of dopaminergic neurons was assessed by [^3H]DA uptake assays, shown in FIG. 37 or counting of TH-IR neurons, shown in FIG. 38. Quantified results are expressed as mean±SEM of percentage of vehicle-treated control cultures from three experiments performed in duplicate. *, p<0.05 compared with the corresponding vehicle-treated control cultures. […] VPA time-dependently induces survival-promoting effects against spontaneous DA neuronal death in rat primary mesencephalic neuron-glia cultures.
Rat primary mesencephalic neuron-glia cultures seeded in a 24-well culture plate at density of 5×10^5 per well were treated with indicated concentrations of sodium butyrate or its vehicle 7 days after seeding. The viability of dopaminergic neurons was assessed by DA uptake assays 7 days after sodium butyrate addition.
Mesencephalic neuron-glia cultures, prepared as described above, were pretreated with vehicle or 3-HM (1-5 μM) before the treatment of LPS (10 ng/ml). Seven days later, the degeneration of dopaminergic neurons was determined by the functional assay of [^3H]DA uptake and by the morphometric measurement of dopaminergic neurons following immunostaining with an anti-TH antibody. [^3H]DA and immunostaining are performed as described above.

Experiment [2] deals with dopaminergic neurons in mesencephalic neuron-enriched cultures. Kind of experiment: [3H]DA uptake in neuron-enriched cultures (direct, conditioned media, reconstituted). Particulars: neuron-enriched cultures, 7 days; drug 0.6 mM or conditioned medium. It is filed as cell-based, rat. The procedure:
Mixed-glia cultures were first prepared from brains of 1-day-old Fisher 344 rat pups, as described previously (Liu, et al. 2001). Mechanically dissociated brain cells (5×10^7) were seeded onto 150 cm^2 culture flasks in Dulbecco's modified Eagle's medium containing 10% heat-inactivated FBS, 2 mM L-glutamine, 1 mM sodium pyruvate, 100 μM non-essential amino acids, 50 U/ml penicillin, and 50 μg/ml streptomycin. The cultures were maintained at 37° C. in a humidified atmosphere of 5% CO2 and 95% air, and medium was replenished 4 days after the initial seeding. Upon reaching confluence (usually 12-14 days later), microglia were detached from astroglia by shaking the flasks for 5 hours at 180 rpm. Astroglia were then detached with trypsin-EDTA and seeded in the same culture medium. After five or more consecutive passages, cells were seeded onto 24-well plates (10^5/well) for experiments. Immunocytochemical staining of the astroglia enriched cultures with either anti-GFAP or anti-OX-42 antibody indicated astroglial purity of greater than 98% and less than 2% of microglia contamination.
Conditioned medium derived from rat primary astroglial cultures treated with vehicle (ACM) or 0.6 mM VPA (ACM-VPA) were harvested after 12, 24 and 48 hours of incubation. Midbrain neuron-enriched cultures seeded in 24-well plates at a density of 5×10^5 cells/well were treated with vehicle, VPA, ACM or ACM-VPA for 7 days. Neurotrophic effect was quantified by [^3H]DA uptake assay.
Rat mesencephalic neuron-enriched cultures are prepared from dissociated ventral mesencephalic cells from embryonic day 13-14 Fisher 344 rats were seeded first at a density of 5×10^5/well to poly-D-lysine-precoated 24-well culture plates. […] Three days later, the culture medium was replaced with the maintenance medium. Routinely, the seven-day-old neuron-enriched cultures were used for treatment. […] Of the Neu-N immunoractive neurons, 2.7-3.9% was TH-IR neurons.
To explore whether astroglial cells are also the main target of sodium butyrate-induced neurotrophic effect, we prepared media conditioned by incubation of astroglial cultures in the absence or presence 0.6 mM sodium butyrate. Conditioned medium derived from rat primary astroglial cultures treated with vehicle (ACM) or 0.6 mM sodium butyrate (ACM-Sodium butyrate) were harvested after 48 hours of incubation. Midbrain neuron-enriched cultures seeded in 24-well plates at a density of 5×10^5 cells/well were treated with vehicle, sodium butyrate, ACM or ACM-Sodium butyrate for 7 days. Seven days after treatment, neurotrophic effect for dopaminergic neurons was assessed by [^3H]DA uptake assays.
Various concentrations of 3-HM (0.1-5 μM) or vehicle were added to the following different cell cultures: neuron-enriched cultures (A); reconstituted cultures by adding 10% and 20% (5×10^4/well and 1×10^5/well) of microglia to the neuron-enriched cultures (B); reconstituted cultures by adding 40% and 50% (2×10^5/well and 2.5×10^5/well) of astroglia to the neuron-enriched cultures (C). Cultures are prepared as described in Example 25. The [^3H]DA uptake measurements were performed […] after treatment. Results were expressed as a percentage of the vehicle-treated control cultures and were the mean±SE from five (A) and four (B,C) independent experiments in triplicate. *P<0.05 and **P, 0.001 compared with the vehicle-treated control cultures. #P<0.05 compared with the augmented cultures with 40% astroglia. N, neuron-enriched cultures; N+10% (20%) MG: 10% (20%) of microglia were added back to the neuron-enriched cultures; N+40% (50%) AS: 40% (50%) of astroglia were added back to the neuron-enriched cultures.
To confirm the possible role of astroglia in the neurotrophic effect of 3-HM, conditioned media from astroglia-enriched cultures (prepared as described above) treated with either 3-HM (1-5 μM) or vehicle for 24 hours were prepared. […]

Experiment [3] deals with dopaminergic neurons in rat primary mesencephalic neuron-glia cultures. The experiment is described as follows: [3H]DA uptake in LPS-treated mesencephalic neuron-glia cultures. As to conditions: LPS 5 ng/ml, 7 days, LPS alone 40.1 ± 3.2; for DA uptake, LPS + Peptide 10^−13: peptide 10^−13, 30 min pretreatment; for DA uptake, LPS + Peptide 10^−14: peptide 10^−14, 30 min pretreatment; for DA uptake, LPS + Peptide 10^−15: peptide 10^−15, 30 min pretreatment. Type of experiment: cell-based. As to the method: Neuron-glia cultures were prepared from the ventral mesencephalic tissues of embryonic day 13-14 Fisher F344 rats or day 12-13 wild-type C57BL/6J (gp91phox^+/+) mice. Dissociated cells were seeded at 1×10^5/well and 5×10^5/well to poly-D-lysine-coated 96-well and 24-well plates, respectively. Cells were maintained at about 37° C. in a humidified atmosphere of 5% CO2 and 95% air, in minimal essential medium (MEM) containing 10% fetal bovine serum (FBS), 10% horse serum (HS), 1 gm/l glucose, 2 mM L-glutamine, 1 mM sodium pyruvate, 100 μM nonessential amino acids, 50 U/ml penicillin, and 50 μg/ml streptomycin. Seven-day-old cultures were used for treatment.
Dextromethorphan (obtained from Sigma-Aldrich (St. Louis, Mo.) as dextromethorphan hydrobromide) was freshly prepared as a stock solution (1 mM) in ddH2O and sterile-filtered right before use. For treatment of the cultures, the DM was serially diluted (10×) with fresh culture medium containing 2% of fetal bovine and horse serum. The neuron-glia cultures were pretreated with 10^−5-10^−17M DM 30 minutes prior to treatment with 10 ng/ml of LPS.
Seven days after treatment, the degeneration of dopaminergic neurons was assessed by [^3H]-dopamine (DA) uptake assays. The [^3H]-DA uptake assays were performed as follows. Cultures were washed twice with warm Krebs-Ringer buffer (KRB, 16 mM sodium phosphate, 119 mM NaCl, 4.7 mM KCl, 1.8 mM CaCl2, 1.2 mM MgSO4, 1.3 mM EDTA, and 5.6 mM glucose; pH7.4) and then incubated for about 20 minutes at about 37° C. with 1 μM [^3H]-DA in KRB in order to allow for the uptake of DA. Afterwards, the cultures were washed (three times) with ice-cold KRB and the cells were collected in 1 N NaOH. Radioactivity was determined by liquid scintillation counting.
This example tests whether or not post-treatment with DM is still neuroprotective in LPS-induced neurotoxicity. Neuron-glia co-cultures as prepared in Example 1 were first treated with LPS (20 ng/ml) for twelve hours, and then LPS was removed by removing the media from the cultures and washing twice with PBS. Different concentrations of DM (10^−5, 10^−10, and 10^−14 M) were then added to the cultures and incubation was continued for another 6 or 7 days. The DA uptake and the superoxide production were measured as in Example 1 and 5.
Neuron-glia cell cultures were prepared as in Example 1, and pretreated with the various peptide fragments of Table 1 (peptide fragments were obtained from BACHEM) for 30 minutes followed by addition of 5 ng/ml of LPS. DA neurotoxicity was measured as an Example 1 at 7 days post treatment.
DA neurotoxicity was measured at 7 days post treatment as in Example 1. Dopaminergic neuronal death was determined at 7 days post treatment using immunocytochemical staining as in Example 2.
Neuron-glia cultures were prepared from the ventral mesencephalic tissues of embryonic day 13-14 rats. Dissociated cells were seeded at 1×10^5/well and 5×10^5/well to poly-D-lysine-coated 96-well and 24-well plates, respectively.

For the compound `CCCC(=O)[O-].[Na+]` [sodium butyrate, Sodium Butyrate], the “neurotrophic effect (DA uptake) in neuron-glia culture” value in experiment [1] is on record as “pronounced neurotrophic effect”. In experiment [2], the “increase in DA uptake” value is listed as “less than 2 fold”.
Turning to “DynA 2-17: peptide fragment of Dynorphin A (YGGFLRRIRPKLKWDNQ), residues 2-17”, in experiment [3], the “DA uptake, LPS + Peptide 10^−13” value is recorded as 44.3 ± 8.2% of the control cultures; the “DA uptake, LPS + Peptide 10^−14” value was 62.7 ± 8.0% of the control cultures; the “DA uptake, LPS + Peptide 10^−15” value is on record as 50.2 ± 6.9% of the control cultures.
The corresponding values for “Tyr-Gly-Gly-Phe-Leu-Arg-Arg-Ile-Arg-Pro-Lys-Leu-Lys-Trp-Asp-Asn-Gln (YGGFLRRIRPKLKWDNQ; listed as Homo sapiens) [DynA 1-17]” are 52.1 ± 6.2% of the control cultures, 58.0 ± 6.5% of the control cultures and 51.0 ± 9.4% of the control cultures.
